Patent US10196411B2, “Tizoxanide phosphate and alkane sulfonate and pharmaceutical applications thereof” (priority 2014, dated 2019)
Values after ≈ are worked out from the molar mass of the structure shown. Where a name gives a salt, the structure may show the parent alone. Read-outs that look alike come from different tables or passages of the source.

Key:
[1] = Pharmacokinetic evaluation of oral administration in mice (tizoxanide in blood by LC/MS/MS); format: in vivo, ICR mice; details: in words; for conversion to the active form tizoxanide in vivo: after oral administration in mice; for Area Under concentration-time Curve (AUC) compared to nitazoxanide: oral administration in mice
Protocol: Sample preparation: 32.57 μmol of a test compound was dissolved in 100 μL dimethyl sulfoxide (DMSO), with the addition of 10 mL 0.5% Carboxyl Methyl Cellulose Sodium (CMC-Na) solution, to prepare a sample at 3.257 μmol/mL.
The test compounds refer to the compounds prepared in Examples of the invention and the positive control compound nitazoxanide. The experiment was carried out in two batches, wherein the first hatch of test compounds were Compound 1, 2, 6, 7, 8, 9 and the positive control compound nitazoxanide; and the second batch of test compounds were Compound 3, 4, 5, 12, 14, 17, 18 and positive control compound nitazoxanide.
Experimental method: ICR mice (SPS grade, male, […]), purchased from Beijing Vital River Laboratory Animal Technology Co., Ltd., were grouped randomly depending on body weight, 3 mice for each group. Nitazoxanide and a test compound were intragastrically administered separately to each mouse at a dose of 10 mL/kg (i.e., 32.57 μmol/kg of corresponding drug to each mouse), wherein nitazoxanide was used as positive control, and 0.1 ml blood was taken from veins of Fundus Oculi at 0.08, 0.25, 0.5, 1, 2, 4, 6, 8 and 12 h after administration, placed in a Heparin Sodium-containing centrifuge tube, and centrifuged for 20 min (at a relative centrifugal force (RCF) of 3000 g). The plasma was taken and stored in a −20° C. refrigerator for further detection.
During the detection, 50 μL plasma was taken, with the addition of an internal standard solution (5000 ng/mL glipizide aqueous solution, 10 μL), and the addition of acetonitrile (200 μL), and then mixed well. The mixture was vortexed for 3 min, and centrifuged for 10 min (at a relative centrifugal force (RCF) of 8500 g). The supernatant (50 μL) was well mixed with water (50 μL), and 10 μL was drawn for LC/MS/MS analysis, so as to detect the blood concentration of tizoxanide. The results are shown in Table 1, Table 2, Table 3, Table 4, FIG. 1, and FIG. 2.

[2] = in vivo, cited from earlier work
[3] = Pharmacokinetic evaluation of oral administration and intravenous injection in rats; format: in vivo, SD rats; details: for MRT last: read-out: MRT(0-t)
Protocol: 9 SD rats (SPF grade, male, 200±10 g), provided by Laboratory Animal Center of the Academy of Military Medical Sciences, were grouped randomly, 3 […] for each group.
[…]; The plasma was separated and stored in a −20° C. refrigerator for further detection.
(2) Oral administration group of Compound 3, a dose of 15 mg/kg (equivalent to a dose of 41 μmol/kg tizoxanide); […]; The plasma was separated and stored in a −20° C. refrigerator for further detection.
(3) Oral administration group of nitazoxanide: a dose of 12.5 mg/kg (equivalent to a dose of 41 μmol/kg tizoxanide); administration volume: 2 mL/200 g rat (preparation of a test solution: 10.96 mg nitazoxanide was weighed accurately and dissolved by adding 600 μL DMSO, and […] sterile water was added to prepare a clear solution at 1.25 mg/mL); after oral administration of nitazoxanide at 12.5 mg/kg in rats, blood was taken before administration and at 0.08, 0.25, 0.5, 1, 2, 4, 6, 8, 12 and 24 h after administration. The plasma was separated and stored in a −20° C. refrigerator for further detection.
Treatment of plasma sample: 100 μL plasma was taken, 300 μL acetonitrile solution containing internal standard (500 nmol/L a solution of tolbutamide in acetonitrile) was added, and then mixed well. The mixture was vortexed for 1 min, and centrifuged at 4° C. for 10 min (at a relative centrifugal force (RCF) of 14000 g). The supernatant was taken, and 20 μL was drawn for LC/MS/MS analysis, so as to detect the blood concentration of tizoxanide and the prototype drug.

[4] = system: Mycobacterium tuberculosis; details: cited from earlier work
Helicobacter pylori = details: 103 strains of Helicobacter pylori; cited from earlier work
PR8 influenza virus = PR8 influenza virus in MDCK cells; cited from earlier work
[5] = in words
[6] = Compound 3 in plasma, rats, intravenous injection of Compound 3 (5 mg/kg)
[7] = Compound 3 in plasma, rats, oral administration of Compound 3 (15 mg/kg)
[8] = male, SD, rat, in vivo, Compound 3 in plasma, rats, intravenous injection of Compound 3 (5 mg/kg)
[9] = male, SD, rat, in vivo, Compound 3 in plasma, rats, oral administration of Compound 3 (15 mg/kg)
[10] = male, SD, rat, in vivo, rats, intravenous injection of Compound 3 (5 mg/kg), read-out: plasma concentration of Compound 3
[11] = male, SD, rat, in vivo, rats, oral administration of Compound 3 (15 mg/kg), read-out: plasma concentration of Compound 3

SMILES: COP(=O)(OC)Oc1ccccc1C(=O)Nc1ncc([N+](=O)[O-])s1 [Compound 17, dimethyl 2-(5-nitrothiazol-2-yl-carbamoyl)phenyl phosphate]
- conversion to the active form tizoxanide in vivo [1]: relatively complete
- Area Under concentration-time Curve (AUC) compared to nitazoxanide [1]: obviously higher

SMILES: CCCCS(=O)(=O)Oc1ccccc1C(=O)Nc1ncc([N+](=O)[O-])s1 [Compound 9, 2-(5-nitrothiazol-2-yl-carbamoyl)phenyl 1-butanesulfonate]
- melting point: 142 to 144 °C
- conversion to the active form tizoxanide in vivo [1]: relatively complete
- Area Under concentration-time Curve (AUC) compared to nitazoxanide [1]: much higher

SMILES: CS(=O)(=O)Oc1ccccc1C(=O)Nc1ncc([N+](=O)[O-])s1 [Compound 6, 2-(5-nitrothiazol-2-yl-carbamoyl)phenyl methanesulfonate]
- melting point: 188 to 190 °C
- conversion to the active form tizoxanide in vivo [1]: relatively complete
- Area Under concentration-time Curve (AUC) compared to nitazoxanide [1]: much higher

SMILES: CC(=O)Oc1ccccc1C(=O)Nc1ncc([N+](=O)[O-])s1 [nitazoxanide, 2-acetoxy-N-(5-nitro-2-thiazolyl)benzamide]
- detection of nitazoxanide in plasma, urine, bile and feces ([2]; po): not detectable
- fraction of the oral dose excreted by feces [2]: about ⅔
- fraction of the oral dose excreted by urine [2]: about ⅓
- Vz/F ([3]; male, SD, rat, in vivo, po, 12.5 mg/kg): 32.67 ± 16.81 L/kg
- minimal inhibitory concentration (MIC), median value [4]: 16 µg/mL (≈ 52.1 µM)
- 50% minimal inhibitory concentration (MIC50) (Helicobacter pylori): 1 µg/mL
- 90% minimal inhibitory concentration (MIC90) (Helicobacter pylori): 4 µg/mL
- EC50 (PR8 influenza virus): 1 µg/mL (≈ 3.25 µM)
- EC90 (PR8 influenza virus): 7 µg/mL (≈ 22.8 µM)

SMILES: O=C(Nc1ncc([N+](=O)[O-])s1)c1ccccc1OP(=O)(OCc1ccccc1)OCc1ccccc1 [Compound 1, dibenzyl 2-(5-nitrothiazol-2-yl-carbamoyl)phenyl phosphate]
- melting point: 122 to 123 °C
- conversion to the active form tizoxanide in vivo [1]: relatively complete
- Area Under concentration-time Curve (AUC) compared to nitazoxanide [1]: slightly higher

SMILES: CC(C)(C)OC(=O)NCCS(=O)(=O)Oc1ccccc1C(=O)Nc1ncc([N+](=O)[O-])s1
- melting point: 164 to 166 °C

SMILES: O=C(Nc1ncc([N+](=O)[O-])s1)c1ccccc1OP(=O)(O)O [Compound 3, 2-(5-nitrothiazol-2-yl-carbamoyl)phenyl hydrogen phosphate monosodium salt]
- CLz/F [3, 6]: 17.2 ± 2.83 mL/min/kg
- t1/2z [3, 6]: 28.8 ± 16.8 min
- CLz/F [3, 7]: 1879.8 ± 783.8 mL/min/kg
- F [3, 7]: 2.4%
- t1/2z [3, 7]: 100 ± 100 min
- AUC(0-inf) [3, 8]: 4920 ± 786 ng·h/mL
- AUC(0-t) [3, 8]: 4920 ± 786 ng·h/mL
- Cmax [3, 8]: 26700 ± 6590 ng/mL
- MRT last [3, 8]: 15.6 ± 9 min
- AUC(0-inf) [3, 9]: 154 ± 76.3 ng·h/mL
- AUC(0-t) [3, 9]: 119 ± 50 ng·h/mL
- Cmax [3, 9]: 100 ± 20 ng/mL
- Tmax [3, 9]: 15 min
- MRT last [3, 9]: 73.2 ± 49.8 min
- Vd/F ([3]; male, SD, rat, in vivo, Compound 3 in plasma, rats, oral administration of Compound 3 (15 mg/kg), read-out: Vz/F): 198 ± 118 L/kg
- concentration at 0.03 h [3, 10]: 26700 ± 6590 ng/mL
- concentration at 0.08 h [3, 10]: 13300 ± 1390 ng/mL
- concentration at 0.25 h [3, 10]: 3970 ± 1880 ng/mL
- concentration at 0.5 h [3, 10]: 1730 ± 1250 ng/mL
- concentration at 1 h [3, 10]: 345 ± 316 ng/mL
- concentration at 2 h ([3]; male, SD, rat, in vivo, rats, intravenous injection of Compound 3 (5 mg/kg), 2 h, read-out: plasma concentration of Compound 3): 113 ± 83.4 ng/mL
- concentration at 4 h ([3]; male, SD, rat, in vivo, rats, intravenous injection of Compound 3 (5 mg/kg), 4 h, read-out: plasma concentration of Compound 3): 13.9 ± 1.9 ng/mL
- concentration at 0.03 h [3, 11]: 55.3 ± 2.1 ng/mL
- concentration at 0.08 h [3, 11]: 99.1 ± 22.1 ng/mL
- concentration at 0.25 h [3, 11]: 71.1 ± 7.3 ng/mL
- concentration at 0.5 h [3, 11]: 33 ± 3.2 ng/mL
- concentration at 1 h [3, 11]: 24.4 ± 1.6 ng/mL
- conversion to active form tizoxanide ([3]; rats, oral administration or intravenous injection, in words): quickly converted

SMILES: CCS(=O)(=O)Oc1ccccc1C(=O)Nc1ncc([N+](=O)[O-])s1 [Compound 7, 2-(5-nitrothiazol-2-yl-carbamoyl)phenyl ethanesulfonate]
- melting point: 178 to 180 °C
- conversion to the active form tizoxanide in vivo [1]: relatively complete
- Area Under concentration-time Curve (AUC) compared to nitazoxanide [1]: much higher

SMILES: O=C(Nc1ncc([N+](=O)[O-])s1)c1ccccc1OP(=O)(O)O [Compound 5, 2-(5-nitrothiazol-2-yl-carbamoyl)phenyl phosphate calcium salt]
- solubility compared to nitazoxanide [5]: much better

SMILES: CCOP(=O)(OCC)Oc1ccccc1C(=O)Nc1ncc([N+](=O)[O-])s1 [Compound 18, diethyl 2-(5-nitrothiazol-2-yl-carbamoyl)phenyl phosphate]
- conversion to the active form tizoxanide in vivo [1]: relatively complete
- Area Under concentration-time Curve (AUC) compared to nitazoxanide [1]: obviously higher

SMILES: CCCS(=O)(=O)Oc1ccccc1C(=O)Nc1ncc([N+](=O)[O-])s1 [Compound 8, 2-(5-nitrothiazol-2-yl-carbamoyl)phenyl 1-propanesulfonate]
- melting point: 144 to 146 °C
- conversion to the active form tizoxanide in vivo [1]: relatively complete
- Area Under concentration-time Curve (AUC) compared to nitazoxanide [1]: much higher

SMILES: O=C(Nc1ncc([N+](=O)[O-])s1)c1ccccc1O [tizoxanide]
- 50% minimal inhibitory concentration (MIC50) (Helicobacter pylori): 1 µg/mL
- 90% minimal inhibitory concentration (MIC90) (Helicobacter pylori): 4 µg/mL

SMILES: O=C(Nc1ncc([N+](=O)[O-])s1)c1ccccc1OP(=O)(O)O [Compound 2, 2-(5-nitrothiazol-2-yl-carbamoyl)phenyl dihydrogen phosphate]
- melting point: 224 to 226 °C
- conversion to the active form tizoxanide in vivo [1]: relatively complete

SMILES: NCCS(=O)(=O)Oc1ccccc1C(=O)Nc1ncc([N+](=O)[O-])s1 [Compound 12, 2-(5-nitrothiazol-2-yl-carbamoyl)phenyl taurate hydrochloride]
- conversion to the active form tizoxanide in vivo [1]: relatively complete
- Area Under concentration-time Curve (AUC) compared to nitazoxanide [1]: much higher
